Test results taken from a melting point compilation (Tetko et al.; mined from patent text by program, amines drawn as free bases though some values may be those of a salt).

Row | SMILES | melting point
1 | ClC1(Cl)OC(Cl)(Cl)c2ccccc21 | 85 to 86 °C
2 | O=C(CO)Nc1nc2c(Cl)cccc2s1 | 242 to 245 °C
3 | COC(=O)N1CCN(c2ccc(N3CC(CNC(C)=O)OC3=O)cc2F)CC1 (configuration not stated) | 177 to 179 °C
4 | CC1(N2Cc3ccccc3C2=O)CCC(=O)NC1=O (configuration not stated) | 231 to 232 °C
5 | C=CC(=O)NCCCCOc1ccccc1 | 46 to 47 °C
6 | O=C(CCCCCCNC(=O)c1ccc(C(C(=O)Nc2cccc3cccnc23)C(=O)Nc2cccc3cccnc23)cc1)NO | 212 to 215 °C
7 | CC(=O)Nc1ccccc1OCCO | 89 to 91 °C
8 | CC1CC(=O)N(c2cc(C(C)(C)C)c(O)c(C(C)(C)C)c2)C1 (configuration not stated) | 157 to 159 °C
9 | COc1cc(O)c(C=O)cc1C(C)(C)C | 75 to 78 °C
10 | CN(C)c1ccc(NC(=O)N(Cc2ccco2)C[C@H]2CC[C@H](CN(Cc3ccco3)C(=O)Nc3ccc(N(C)C)cc3)CC2)cc1 | 129 to 132 °C
11 | Cc1cc(-n2cnnn2)cc2c1NC(=O)CC2 | 271 to 272 °C
12 | CCOC(=O)c1cc2c(Cl)cccc2n1[C@H](C)CNC(=O)OC(C)(C)C | 115 to 119 °C
13 | CCCCCC(O)CCCOC(=O)c1ccccc1 (configuration not stated) | 90 to 93 °C
14 | N[C@H]1CCCC[C@H]1Nc1cc2c(cc1F)c(=O)c(C(=O)O)cn2C1CC1 (relative stereo) | 270 to 274 °C
15 | C=C(C)COc1ccc(C)c2c1C(=O)CC2 | 74.2 to 75.2 °C
16 | CCCCC#CCCOc1cc(C=O)ccc1OC | 42 to 43 °C
17 | CCOC(=O)CNC(=O)[C@@H]1CS[C@H](c2ccccc2O)N1C(=O)CCSC(C)=O | 130 to 131 °C
18 | O=C(Cl)C(=O)N1CCOC1=O | 57 °C
19 | C#CCn1c(C(F)(F)F)cc2ccccc21 | 59 °C
20 | COc1cc(NCC(O)CO)c([N+](=O)[O-])cc1O (configuration not stated) | 180 °C
21 | CCOc1ccc2nc(N3CCC(OC[C@H](C)NC(C)=O)CC3)sc2c1 | 129 to 131 °C
22 | CC(C)NC(=O)C(F)(F)C(F)(F)F | 54 to 56 °C
23 | CN1CCN(c2c3c(nc4cc(Cl)ccc24)CCN(C)C3)CC1 | 114 to 115 °C

Row | SMILES | melting point
24 | C=C(C)C(CC=C(C)C)CC12CC(CC=C(C)C)C(C)(C)C(CC=C(C)C)(C(=O)C(C(=O)c3ccc(O)c(O)c3)=C1O)C2=O (configuration not stated) | 126 °C
25 | CC(=O)NC[C@H]1CN(c2ccc(N3CCC4(CC3)CC4(C#N)C#N)cc2)C(=O)O1 | 172 to 174 °C
26 | O=C(O)c1cc(Cl)cs1 | 138 °C
27 | NC(=O)N(O)CCNC(=O)c1csc(-c2ccccc2)n1 | 188 to 192 °C
28 | Nc1ccc(C(=O)O)c(C(=O)O)c1 | 188 °C
29 | Nc1ccc2c(c1)C(=O)CC21CCCC1 | 125 °C
30 | Cc1cnc(NN)nc1N | 174 to 175 °C
31 | COc1nc(C)nc(N(C)C(=O)NS(=O)(=O)c2ccccc2OC(F)(F)F)n1 | 162 °C
32 | CC(=O)OCC1=CC(=O)C=C2CCC3C4CCC(=O)C4(C)CCC3C21C (configuration not stated) | 121 to 123 °C
33 | Cc1nnc2n1-c1sc(CC(=O)N3CCOCC3)cc1C(c1ccccc1Cl)=NC2 | 143 to 144 °C
34 | COc1ccc([N+](=O)[O-])cc1OCCO | 115 °C
35 | CN(N)C(=O)N=C1CCC(CC2CCC(=NC(=O)N(C)N)CC2)CC1 (configuration not stated) | 187 to 193 °C
36 | O=C1OC(c2ccccc2)(c2ccccc2)C2CN(S(=O)(=O)c3ccccc3)CCN12 (configuration not stated) | 236 to 237 °C
37 | S=C(NN=Cc1cccc(-c2ccccc2Cl)n1)NN1CCCC1 | 187 to 188 °C
38 | CC(=O)NCSC[C@H](NC(=O)OC(C)(C)C)C(=O)O | 110 to 112 °C
39 | CC(C)(C)OC(=O)N1CCC(NCc2ccccc2N)CC1 | 79 to 81 °C
40 | CN(C)C(=O)C1N=C(c2ccccc2)c2cc(Cl)ccc2NC1=O (configuration not stated) | 297 °C
41 | O=C(O)c1cc(Cl)ccc1S | 192 to 194 °C
42 | IC(I)=C(I)Cn1nnc(-c2ccccc2)n1 | 188 °C
43 | CCCCOCCOc1ccc(-c2ccc(N(C)CCC)c(C=CC(=O)O)c2)cc1 | 95 to 97 °C
44 | CN(C)C=C(C#N)C(=O)c1cc(F)c(Cl)cc1Cl | 138 to 139 °C
45 | CC(C)(C)OC(=O)NC1C(=O)N(OCc2ccccc2)C12CCC2 (configuration not stated) | 156 to 157 °C
46 | CC(C)(C)c1cc(C(C)(C)C)c(OP2OCCN2C(C)(C)C)c(C(C)(C)C)c1 (configuration not stated) | 73 to 74 °C

Next, values leading:

Row | melting point | SMILES
47 | 232 to 234 °C | O=C1CCC(Nc2ncc3ncnc(Nc4ccc(F)c(Cl)c4)c3n2)CC1
48 | 185 to 188 °C | CCOC(=O)c1c(C(C)(C)O)nc(SCC)n1Cc1ccc(-c2ccccc2-c2nnn[nH]2)cc1
49 | 340 to 343 °C | Cc1cc(-c2ccc(NS(C)(=O)=O)cc2)cc2ccc(=O)[nH]c12
50 | 84 to 85 °C | CCCCc1ccc(NC(=O)CCc2ccccc2)c(=O)n1CC(=O)OC
51 | 76 °C | CCCCc1nc(Cc2ccc(-c3ccccc3C(=O)OC)cc2)c2ccccc2n1
52 | 250 to 253 °C | CC(C)(C)Nc1nc(-c2ccc(F)cc2)c(-c2ccc(S(C)(=O)=O)cc2)s1
53 | 160 °C | O=C1CCC(c2ccccc2)(c2ccccc2)C2CN(C(Cc3ccccc3)=NCc3ccccc3F)CC12 (configuration not stated)
54 | 255 to 260 °C | Cc1c(CO)ncn1C(c1ccccc1)(c1ccccc1)c1ccccc1
55 | 195 to 197 °C | CCc1nc2c(N)nc3cc(OCCc4c(C)n[nH]c4C)ccc3c2s1
56 | 212 to 214 °C | O=C(O)Cc1ccc2c(c1)C(=O)Cc1cccnc1S2
57 | 196 °C | N#Cc1c(N2CCN(C(=O)c3ccco3)CC2)c2cc(Cl)cnc2n(Cc2ccccc2)c1=O
58 | 255 to 257 °C | Cc1ccc(Cl)c(Nc2ccccc2-c2nnc(N)o2)c1Cl
59 | 151 to 153 °C | CC(C)(NC(=O)CCn1cnc(C=O)c1)c1ccc(Cl)cc1
60 | 118 to 120 °C | COC(=O)C(Oc1nc(OC)cc(OC)n1)C(C)(N=[N+]=[N-])c1ccccc1 (configuration not stated)
61 | 158 to 159 °C | CCn1nnc(NC(=O)C2c3ccccc3COc3ccccc32)n1 (racemic)
62 | 140 to 142 °C | Fc1cc(F)cc(NC(=S)c2ccccn2)c1
63 | 173 °C | C#CCOC1(Nc2cccc(OCC3CO3)c2)N=CC(Br)=CN1 (configuration not stated)
64 | 217 to 218 °C | CN(c1cccc2cc(-c3ncc(CCC(=O)NS(C)(=O)=O)s3)[nH]c12)S(=O)(=O)c1cccs1
65 | 139 to 141 °C | CON1CCC2(CC1)C(OCc1ccccc1)=C(c1c(C)cc(C)cc1C)C(=O)N2C

Row | melting point | SMILES
66 | 64.6 to 67 °C | COC(=O)COc1ccc(NC(=O)CCCCCOCc2ccccc2)cc1
67 | 139 to 141 °C | Nc1ccc(OCc2ccccc2)cc1[N+](=O)[O-]
68 | 144 to 146 °C | O=[N+]([O-])c1cn(-c2cccnc2)nc1-c1ccccc1
69 | 128 to 129 °C | c1ccc(-c2ccc(-c3nc(COc4ccc(CCCn5ccnc5)cc4)co3)s2)cc1
70 | 88 to 89 °C | CC=CC(=O)N(CCCCC(=O)O)C(c1ccccc1)c1ccccc1
71 | 124 °C | O=C1CCC(c2cccc(F)c2)(c2cccc(F)c2)[C@@H]2CN(Cc3ccccc3)C[C@H]12 (racemic)
72 | 164 to 167 °C | CNC(=O)c1cccc(Oc2ncccc2C(=O)NCc2ccccc2)c1
73 | 120 to 121 °C | CCCn1c(=O)c2c(N3CCN(C)CC3)cc(Cl)cc2n(Cc2ccccc2)c1=O
74 | 82 to 84 °C | N#Cc1ccccc1-c1ccc(OCC(=O)C2CC2)cc1
75 | 138 to 140 °C | COc1ccccc1Oc1c(NS(=O)(=O)c2ccc(CC(C)C)cc2)nc(-c2ncccn2)nc1OCCOC(N)=O
76 | 129 to 133 °C | O=[N+]([O-])c1cc(N=Nc2ccc(S(=O)(=O)F)cc2)cc(Cl)c1O
77 | 185 to 192 °C | COc1csc2ccc(C(=O)O)c(Cl)c12
78 | 298 °C | COc1ccc(C(=O)Nc2c(Cl)cncc2Cl)c2c1oc1ccc(C(F)(F)F)cc12
79 | 175 to 176 °C | CC(C)(C)c1cc(/C=C/C(=O)O)n(Cc2ccc(C(F)(F)F)cc2Cl)n1
80 | 76 to 77 °C | CN1c2ccccc2[C@H]2Cc3ccccc3[C@H]21 (relative stereo)
81 | 227 to 229 °C | O=C(Nc1ccccc1)OCC#Cc1cc(F)c2ncc(C(=O)NCc3ccc(Cl)cc3)c(O)c2c1
82 | 256 to 258 °C | CC(C)(O)Cn1c(CO)nc2c(N)nc3cc(-c4ccc(F)c(F)c4)cnc3c21
83 | 200 to 201 °C | O=C(c1ccc(O)cc1)c1cccc(O)c1
84 | 208 to 212 °C | CC(C)Cn1cnc2c1c1ccccc1n1nnnc21

Row | melting point | SMILES
85 | 103 to 105 °C | CCOC(=O)Cc1c(C)n(Cc2ccccc2)c2cccc(OCc3coc(-c4ccccc4)n3)c12
86 | 210 to 212 °C | CCOc1cc(OC)c(/C=C/C(=O)c2ccc(C(=O)O)cc2)cc1-c1cccs1
87 | 85 to 105 °C | COc1cc(OC)c(-c2cc3ccccc3s2)cc1C=CC(=O)c1cc(OC)c(O)c(OC)c1
88 | 171 to 172 °C | CCCCc1ccc(C(=O)N[C@H](Cc2ccc(C(F)(F)F)cc2)[C@@H](O)c2ccc(F)cc2)cc1 (racemic)
89 | 143 to 155 °C | CCOc1c(Nc2cc(C(F)(F)F)ccc2OC)c(=O)c1=O
90 | 73 to 85 °C | N#CCc1ccc([N+](=O)[O-])c(OCc2ccccc2)c1
91 | 62 to 65 °C | Cc1ccc(C)c(OCc2ccccc2C(Cl)Cl)c1
92 | 63 to 64 °C | Cc1cccc(Nc2ccccc2C(=O)OCc2ccccn2)c1C
93 | 157 to 159 °C | COc1cc2c3c(c1)c(=O)c(Cc1cccnc1)cn3-c1ccc(Br)cc1S2
94 | 123 to 127 °C | S=C(Cc1ccc(Oc2ccc(I)cc2)cc1)N1CCOCC1
95 | 80 to 81 °C | CCOC(=O)C=Cc1ccc(OCCN(C)c2ccccn2)cc1
96 | 188 to 190 °C | CCc1cccc(NS(=O)(=O)c2ccc(N3CCNC3=O)cc2)c1
97 | 132 to 134 °C | Cc1c(C(=O)c2ccccc2)c(=O)n(C)c(=O)n1C
98 | > 260 °C | O=C(O)Cc1cc(C=Cc2ccc(C(=O)O)cc2)ccc1O
99 | 137 to 138 °C | CCCCOc1cc(C(N)=O)nn1Cc1ccc(Cl)cc1
100 | 129 °C | COC(=O)c1ccc2cc(OC)ccc2n1
101 | 163 to 165 °C | CN(C)C(=O)c1cc(N2CCN([C@H]3CC[C@@H](c4cn(C)c5ccc(C#N)cc54)CC3)CC2)c2ncccc2c1
102 | 80 to 82 °C | N#Cc1ccc(Oc2ccc(N)c(CN)c2)cc1
